# Assay results taken from patent US20030003440A1, “Novel CCR5 epitope and antibodies against it” (priority 2001, published 2003).
# How the values were obtained:
# anti-CCR5 Abs = test: Epitope mapping of anti-CCR5 Abs on peptide/beads, assayed in the Mip1β binding inhibition assay; design: species or system human; conditions: for Binding of anti-CCR5 Abs to peptide: Abs from ESN sera bound to peptide/beads, eluted, tested in Mip1β binding inhibition assay, FIG. 1
# Description: Coupling of CCR5 peptides to tosyl-activated Dynabeads M280 (Dynal, Oslo, Norway) was obtained following standard procedures. Briefly, 3×10^7 beads were incubated with 9 μg of CCR5 peptides in 50 mM borate buffer pH 9,5 (16 h at 37° C.). After 4 washes in PBS, peptide/beads were ready for use.
# Binding of anti-CCR5 specific Igs to peptide/beads was obtained by incubating 9 μg Ig's to 9 μg peptide/beads for 1 h at 4° C. Ig's were eluted in 0.5 M acetic acid, dialyzed against RPMI medium, then tested in Mip1β binding assays and/or in HIV neutralization assays. To establish if the region recognized by anti-CCR5 antibodies corresponds to a conformational epitope, the specific peptide/beads were incubated with 10 mM of βME, and subsequently with 300 mM of N-Ethyl Maleimide (final concentration: 30 mM) for 60 min prior to antibody binding.
# The assay was performed as described (Trkola, A. et al., 1996, Nature 384:184). Briefly, 10^6 purified CD4^+ cells in 200 μl of RPMI (Gibco-Life Technologies, Milan, Italy)(containing 0.05 M NaN3, 1% BSA and 25 mM HEPES) were incubated with appropriate dilutions of affinity-purified anti-CCR5 Abs (Example 1); after 45 min of incubation ^125I-Mip1β (Dupont-NEN, Mechelem, Belgium) was added (final concentration 0.1 nM, 0.2 μCi), and the cells were further incubated for 2 h on ice. Unbound radioactivity was separated by centrifugation on a two-step gradient (Grassi, F. et al., 1991, J. Exp. Med. 174:53) in 0.3 ml tubes (Nunc, Roskilde, Denmark) as follows: the lower layer consisted of fetal calf serum (FCS) containing 10% sucrose; the upper layer consisted of 80% silicone (Sigma-Aldrich) and 20% mineral oil (Sigma-Aldrich). The bound radioactivity in the cell pellets was measured in a gamma counter. Serum samples were diluted 1:10 (5 replicas for each sample). A specificity control consisting of a 100-fold excess of unlabeled Mip1β was included in all experiments. The binding of the ^125I-Mip1β to activated CD4^+ cells ranged between 1000 and 6000 CPM. The cut-off value was set at 12% (3 SD above the mean value of the 45 USN serum samples).
# peptide 3 from CCR5 = target: T1, peptide 3 from CCR5 (Homo sapiens, UniProt P51681); test: Immunization of mice with KLH-conjugated peptide; binding of mice sera to peptide 3 by ELISA; assay type: in vivo; conditions: BALB/c mice, i.p. every 15 days, three immunizations, KLH conjugate 50 μg/dose; FIG. 3
# T1 construct: made in house; host or cells: chemical solid-phase synthesis
# Description: BALB/c mice were immunized i.p. every 15 days with peptide 3 or with an unrelated control peptide (VQGEESNDK); both peptides had previously been conjugated to KLH (50 μg/dose). Serum was monitored for the presence of antibodies against the immunogens. After three immunizations the mice were sacrificed and sera were tested in direct binding on pep 3.
# Binding of mice sera to peptide 3 was obtained by ELISA. Microwells plates were coated with Beads/pep 3 (10^7beads). The plates were satured for 1 h with PBS and 3% BSA. Different dilutions of mice antisera ( 1/10, 1/50, 1/250 and 1/1000) were added and incubated for 2 h at r.t. […] The enzimatic reaction was developed and read at 492 nm.
Substance,Binding of anti-CCR5 Abs to peptide (anti-CCR5 Abs),Binding on pep 3 of sera of immunized mice (ELISA) (peptide 3 from CCR5),Binding of anti-CCR5 Abs to peptide after reduction and alkylation (anti-CCR5 Abs; addition of 2-ME and N-ethyl maleimide)
CSSHFPYSQYQFWKNFQTLKc [compound 4],no binding,–,–
"FQEFFGLNNCSSSNR [compound 5, peptide of the extramembrane region of CCR5]",no binding,–,–
"VQGEESNDK [control peptide, unrelated control peptide conjugated to KLH, reference compound]",–,no binding,–
"YYTSEPCQKINVKQIAARLLP [compound 2, peptide of the extramembrane region of CCR5]",no binding,–,–
cMDYQVSSPIYDINYYTSEPC [compound 1],no binding,–,–
"cYAAAQWDFGNTMCQ (N-terminal Cys added; UniProt P51681 89-102, looked up, fragment) [peptide 3, second external domain of CCR5 (first cysteine loop, aa 89-102) with Cys added at the N-terminus]",Specific Ab binding,specific binding,abolished
